Assay [1] concerns the target T1, PRMT5-MEP50 enzyme (Homo sapiens, UniProt O14744).
T1 construct: One virus expresses full length human PRMT5 with Flag-tag at N-terminus; Flag (N); purchased Charles River (Argenta); host or cells: insect cells (Sf9), baculovirus co-infection
Put plainly: In vitro assay 1a: high throughput mass spectrometer assay of SAH formation, 10 nM enzyme, 60 min. The format is biochemical. As to conditions: averaged values, PRMT5-MEP50, 10 nM enzyme, read-out: pIC50 Assay 1a (converted). The source says: Experimental Procedures In Vitro Assay (Assay 1a and 1b)
PRMT5-MEP50 enzyme was purchased from Charles River (Argenta). The enzyme complex was produced in insect cells (Sf9) infected simultaneously with two baculoviruses. One virus expresses full length human PRMT5 with Flag-tag at N-terminus, the second virus expresses full length MEP50 with His6-TEV cleavage at N-terminus. The protein was affinity purified using anti-Flag (M2) beads eluted with 3×FLAG peptide, followed by His-Select eluted with 0.5M imidazole. Eluted protein was then dialysed against tris-buffered saline (TBS) (pH 8.0) containing 20% glycerol and 3 mM dithiothreitol (DTT).
Full-length untagged human recombinant histone H2A (residues 1-130, Genbank Accession #NM_021052 MW=14.1 kDa) expressed in E. coli was purchased from Reaction Biology Corporation, Cat #HMT-11-146. Reagents used for making reaction buffer or stopping reaction were purchased including Tris base (Sigma Cat #T-1503), NaCl (Sigma Cat #RGF-3270), MgCl2 (Sigma Cat #M0250), DTTI (Invitrogen Cat #15508-013) and Formic Acid (Riedel deHaen, Cat #33015)
High Throughput Mass Spectrometer Assay
PRMT5 catalyzes the sequential methylations of the terminal nitrogen atoms on the guanidine groups of arginine residues within proteins using co-substrate S-adenosyl-L-methionine (AdoMet, SAM), forming mono-methyl (MMA), symmetric-dimethyl arginine (sDMA) and S-adenosyl-L-homocysteine (AdoHcy, SAH). The enzyme activity was determined by following the product SAH formation using high throughput mass spectrometry (Agilent Rapidfire 300 System coupled to a Sciex 4000 series QTrap® triple-quad MS/MS). The reaction buffer was 20 mM Tris-HCl, pH 8.5, 50 mM NaCl, 5 mM MgCl2 and 1 mM DTT. The reaction activity was stopped using 1% formic acid (final concentration).
The IC50 Studies were performed using eleven point dosing series made for each compound by serially diluted 1:2 in dimethyl sulfoxide (DMSO), with point 12 being a DMSO control. Compounds were first spotted to plates, and followed by addition of 2 μM SAM and 0.6 μM H2A (histone H2A) solution mixture. The same volume of enzyme solution was added to initiate the enzymatic reactions. The final concentrations of the reaction are at 1 μM SAM, 0.3 μM H2A and 10 nM enzyme (assay 1a) or 1.25 nM enzyme (assay 1b). The reaction was incubated at 30° C. for 60 minutes (min) when 10 nM enzyme was used and for 120 min when 1.25 nM enzyme was used. Subsequently, the reaction was quenched by addition of formic acid to a final concentration of 1%. The inhibitions of SAH formation in the presence of compounds were calculated as a percentage of the control relative to the uninhibited reaction as a function of inhibitor concentration. The data were fit as follows: Y=Bottom+(Top−Bottom)/(1+10^((log IC50−X)*h))
where IC50 is the inhibitor concentration (same unit as X) at 50% inhibition and h is the Hill slope. Y is percent of inhibition, X is log of compound concentration. Bottom and Top are the plateaus in same units as Y.

For assay [2], the system named is nuclear symmetric Arginine dimethylation in A549 cells. Put plainly: PD assay (assay 2): inhibition of nuclear symmetric Arginine dimethylation (SYM10 immunohistochemistry), 48 h. As to conditions: Homo sapiens. The format is cell-based. In a few lines: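 Cells seeded at 400/well overnight, then treated 48 h at 37 °C, final DMSO 0.2%. Fixed and stained with SYM10 antibody plus Alexa 488 secondary, Hoechst and CellMask, then imaged on Opera. Normalized to DMSO (high) and 10 μM reference compound (low); averaged pIC50 reported.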

For assay [3], the target named is T1, PRMT5-MEP50 enzyme. Put plainly: In vitro assay 1b: high throughput mass spectrometer assay of SAH formation, 1.25 nM enzyme, 120 min. As to conditions: averaged values; PRMT5-MEP50, 1.25 nM enzyme, 120 min; read-out: pIC50 Assay 1b (converted). The format is biochemical. In a few lines: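 SAH product measured by RapidFire mass spectrometry after formic acid stop; IC50 from 11-point 1:2 dilutions, four-parameter fit. Reactions at 30 °C in 20 mM Tris pH 8.5 with 1 μM SAM, 0.3 μM H2A: assay 1a 10 nM PRMT5-MEP50, 60 min; assay 1b 1.25 nM, 120 min.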

Where [4] appears, read: A549, averaged values, PD assay, A549 cells, symmetric Arginine dimethylation, read-out: pIC50 Assay 2 (converted).

The results in this text go back to patent US11318157B2, “6-6 bicyclic aromatic ring substituted nucleoside analogues for use as PRMT5 inhibitors” (Janssen Pharmaceutica NV, priority 2015, dated 2022).

SMILES strings stand for the structures. Where two headings read alike, the source gives them in different places.

T1 sequence (O14744 whole entry): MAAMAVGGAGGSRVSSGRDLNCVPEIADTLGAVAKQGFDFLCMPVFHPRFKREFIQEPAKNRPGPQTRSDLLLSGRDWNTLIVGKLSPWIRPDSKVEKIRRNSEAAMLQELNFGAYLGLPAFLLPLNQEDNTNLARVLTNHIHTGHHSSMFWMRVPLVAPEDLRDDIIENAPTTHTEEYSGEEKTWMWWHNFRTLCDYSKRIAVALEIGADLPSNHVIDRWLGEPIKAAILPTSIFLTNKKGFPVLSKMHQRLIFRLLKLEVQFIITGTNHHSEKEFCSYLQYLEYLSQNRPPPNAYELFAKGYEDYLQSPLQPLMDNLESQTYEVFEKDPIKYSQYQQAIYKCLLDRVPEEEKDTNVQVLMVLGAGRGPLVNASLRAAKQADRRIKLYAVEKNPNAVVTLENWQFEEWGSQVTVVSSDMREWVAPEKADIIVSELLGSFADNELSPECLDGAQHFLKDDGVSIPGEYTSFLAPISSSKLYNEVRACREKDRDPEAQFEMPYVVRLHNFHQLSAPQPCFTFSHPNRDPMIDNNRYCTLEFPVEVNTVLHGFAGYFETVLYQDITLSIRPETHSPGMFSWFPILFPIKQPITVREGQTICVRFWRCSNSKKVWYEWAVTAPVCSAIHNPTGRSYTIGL
T1 sequence (Q9BQA1 whole entry partner): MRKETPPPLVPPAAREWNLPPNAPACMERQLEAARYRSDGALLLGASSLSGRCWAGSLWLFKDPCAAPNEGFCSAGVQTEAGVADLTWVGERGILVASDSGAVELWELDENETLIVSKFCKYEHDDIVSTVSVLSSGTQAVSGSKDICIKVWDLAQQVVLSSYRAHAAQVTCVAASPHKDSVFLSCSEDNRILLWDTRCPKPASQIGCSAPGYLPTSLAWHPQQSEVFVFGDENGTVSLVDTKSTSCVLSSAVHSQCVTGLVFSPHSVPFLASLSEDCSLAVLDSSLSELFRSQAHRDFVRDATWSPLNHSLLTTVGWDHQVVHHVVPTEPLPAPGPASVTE

On to `Nc1ncnc2c1ccn2[C@@H]1C[C@H](Cc2ccc3ccccc3c2)[C@@H](O)[C@H]1O` [Compound 90], for which the IC50 in assay [1] is 100 nM; in assay [2] (setting [4]), over 10000 nM; in assay [3], 631 nM.
Regarding `Nc1ncnc2c1ccn2[C@@H]1O[C@H](COc2ccc3ncccc3c2)[C@@H](O)[C@H]1O` [Compound 11], the figures for the IC50 in assay [1], in assay [2] (setting [4]) and in assay [3] were 3160 nM, over 10000 nM and 7940 nM, respectively.
In the same order, the values of `N#Cc1ccc2ccc(OC[C@H]3O[C@@H](n4ccc5c(N)ncnc54)[C@H](O)[C@@H]3O)cc2n1` [Compound 70] are 631 nM, 6310 nM and 1580 nM.
In the same order, the values of `Nc1ncnc2c1ccn2[C@@H]1O[C@H](COc2ccc3cc(Cl)cnc3c2)[C@@H](O)[C@H]1O` [Compound 25] are 12.6 nM, 126 nM and 39.8 nM.
`Nc1ncnc2c1ccn2[C@@H]1O[C@H](COc2cccc3cccnc23)[C@@H](O)[C@H]1O` [Compound 8]: the IC50 is 6310 nM in assay [1], over 10000 nM in assay [2] (setting [4]) and 12600 nM in assay [3].
In the same order, the values of `Nc1ncnc2c1ccn2[C@@H]1O[C@H](COc2ccc3cc(Br)cnc3c2)[C@@H](O)[C@H]1O` [Compound 2] are 7.94 nM, 39.8 nM and 25.1 nM.
As to `COc1ncnc2c1ccn2[C@@H]1O[C@H](COc2ccc3ccc(N)nc3c2)[C@@H](O)[C@H]1O` [Compound 187], the IC50 was 10 nM in assay [1], 25.1 nM in assay [2] (setting [4]) and 79.4 nM in assay [3].
In the case of `Nc1ncnc2c1ccn2[C@@H]1C[C@H](COc2ccc3cc(Cl)cnc3c2)[C@@H](O)[C@H]1O` [Compound 222], the IC50 in assay [1] was 31.6 nM; in assay [2] (setting [4]), about 174 nM; in assay [3] it was 63.1 nM.
In the case of `Nc1ccc2ccc(CC[C@H]3O[C@@H](n4ccc5cncnc54)[C@H](O)[C@@H]3O)cc2n1` [Compound 167], the figures for the IC50 in assay [1], in assay [2] (setting [4]) and in assay [3] were 0.794 nM, 3.16 nM and 5.01 nM, respectively.
On to `CN(C)c1ccc2ccc(OC[C@H]3O[C@@H](n4ccc5c(N)ncnc54)[C@H](O)[C@@H]3O)cc2n1` [Compound 23], for which the IC50 in assay [1] was 501 nM; in assay [2] (A549, read-out: pIC50 Assay 2 (converted)) it was 398 nM; in assay [3] it was 316 nM.
Take `Nc1ncnc2c1ccn2[C@@H]1C[C@H](CCc2ccc3ccc(NC4CC4)nc3c2)[C@@H](O)[C@H]1O` [Compound 152]: the values for the IC50 in assay [1], in assay [2] (setting [4]) and in assay [3] were 0.501 nM, under 1.17 nM and 3.98 nM, respectively.
Consider `Nc1ncnc2c1ccn2[C@@H]1C[C@H](Cc2ccc3cccnc3c2)[C@@H](O)[C@H]1O` [Compound 66], for which the IC50 in assay [1] was 2000 nM; in assay [2] (setting [4]), over 20000 nM; in assay [3], 5010 nM.
In the same order, the values of `O[C@@H]1[C@@H](CCc2ccc3ccc(NCC4CC4)nc3c2)C[C@@H](n2ccc3c(Cl)ncnc32)[C@@H]1O` [Compound 115] are 10 nM, about 5.5 nM and 5.01 nM.
The matching figures for `O[C@@H]1[C@H](O)[C@@H](COc2ccc3c(Cl)ccnc3c2)O[C@H]1n1ccc2c(Cl)ncnc21` [Compound 34]: 7940 nM, over 20000 nM and over 100000 nM.
As for `Nc1ncnc2c1ccn2[C@@H]1O[C@H](COc2cc3ncc(Br)cc3cc2C(F)(F)F)[C@@H](O)[C@H]1O` [Compound 96], the IC50 in assay [1] was 200 nM; in assay [2] (setting [4]), 200 nM; in assay [3], 501 nM.
As to `Nc1ncnc2c1ccn2[C@@H]1O[C@H](CNc2ccc3cc(Br)cnc3c2)[C@@H](O)[C@H]1O` [Compound 51], the figures for the IC50 in assay [1], in assay [2] (setting [4]) and in assay [3] were 10 nM, about 15.5 nM and 15.8 nM, respectively.
Consider `Nc1ncnc2c1ccn2[C@@H]1O[C@H](COc2ccc3cc(C4CCCC4)cnc3c2)[C@@H](O)[C@H]1O` [Compound 109], for which the IC50 in assay [1] is 126 nM; in assay [2] (setting [4]), 1000 nM; in assay [3], 200 nM.
Consider `Nc1ncnc2c1ccn2[C@@H]1O[C@H](COc2cc3ncccc3cc2Cl)[C@@H](O)[C@H]1O` [Compound 91], for which the IC50 in assay [1] is 126 nM; in assay [2] (setting [4]), 398 nM; in assay [3] it was 501 nM.
As to `Nc1ncnc2c1ccn2[C@@H]1O[C@H](CNc2ccc3cc(Cl)cnc3c2)[C@@H](O)[C@H]1O` [Compound 50], the values for the IC50 in assay [1], in assay [2] (setting [4]) and in assay [3] were 10 nM, 25.1 nM and 7.94 nM, respectively.
For `Nc1ncnc2c1ccn2[C@@H]1O[C@H](COc2cnc3ccccc3c2)[C@@H](O)[C@H]1O` [Compound 10], the IC50 in assay [1] was 3160 nM; in assay [2] (setting [4]), about 7080 nM; in assay [3] it was 3980 nM.
The matching figures for `Nc1ncnc2c1ccn2[C@@H]1O[C@H](COc2ccc3c(Cl)ccnc3c2)[C@@H](O)[C@H]1O` [Compound 33]: 158 nM, 501 nM and 794 nM.
As to `Nc1ncnc2c1ccn2[C@@H]1O[C@H](C#Cc2ccc3cccnc3c2)[C@@H](O)[C@H]1O` [Compound 63], the IC50 was 25.1 nM in assay [1], 200 nM in assay [2] (setting [4]) and 126 nM in assay [3].
For `Nc1ncnc2c1ccn2[C@@H]1O[C@H](CCc2ccc3cc(Br)cnc3c2)[C@@H](O)[C@H]1O` [Compound 111], the IC50 in assay [1] was 12.6 nM; in assay [2] (setting [4]), 63.1 nM; in assay [3], 39.8 nM.
On to `Nc1ncnc2c1ccn2[C@@H]1C[C@H](CNc2ccc3cc(Br)cnc3c2)[C@@H](O)[C@H]1O` [Compound 54], for which the IC50 in assay [1] is 15.8 nM; in assay [2] (setting [4]), 31.6 nM; in assay [3], 15.8 nM.
On to `CNc1ccc2ccc(CC[C@H]3O[C@@H](n4ccc5c(Cl)ncnc54)[C@H](O)[C@@H]3O)cc2n1` [Compound 128], for which the IC50 in assay [1] is 7.94 nM; in assay [2] (setting [4]), 200 nM; in assay [3] it was 63.1 nM.
On to `Cc1ncnc2c1ccn2[C@@H]1C[C@H](CCc2ccc3ccc(NCC4CC4)nc3c2)[C@@H](O)[C@H]1O` [Compound 190], for which the IC50 in assay [1] is 0.501 nM; in assay [2] (setting [4]), about 1.86 nM; in assay [3] it was 5.01 nM.
Turning to `Nc1ccc2ccc(OC[C@H]3O[C@@H](n4ccc5cncnc54)[C@H](O)[C@@H]3O)cc2n1` [Compound 163], the IC50 in assay [1] is 0.501 nM; in assay [2] (setting [4]), 6.31 nM; in assay [3] it was 5.01 nM.
The matching figures for `CCc1cnc2cc(CC[C@H]3C[C@@H](n4ccc5c(N)ncnc54)[C@H](O)[C@@H]3O)ccc2c1` [Compound 125]: 3.98 nM, 20 nM and 25.1 nM.
Turning to `Nc1ncnc2c1ccn2[C@@H]1O[C@H](/C=C/c2ccc3cc(Cl)cnc3c2)[C@@H](O)[C@H]1O` [Compound 57a], the IC50 is 31.6 nM in assay [1], 63.1 nM in assay [2] (setting [4]) and 50.1 nM in assay [3].
In the same order, the values of `CNC(=O)c1cnc2cc(OC[C@H]3O[C@@H](n4ccc5c(N)ncnc54)[C@H](O)[C@@H]3O)ccc2c1` [Compound 189] are 316 nM, 251 nM and 1000 nM.
